Assays:
Assay in all cases: radiometric filter-binding kinase assay, Kinase HotSpot
Conditions in all cases: compound 0.5 µM; ATP 10 µM
PDGFRB (human) = PDGFRB (human) (UniProt P09619)
CHUK (human) = CHUK (human) (UniProt O15111)
PRKCE (human) = PRKCE (human) (UniProt Q02156)
SIK2 (human) = SIK2 (human) (UniProt Q9H0K1)
CLK1 (human) = CLK1 (human) (UniProt P49759)
MAP3K11 (human) = MAP3K11 (human) (UniProt Q16584)
GRK7 (human) = GRK7 (human) (UniProt Q8WTQ7)
SLK (human) = SLK (human) (UniProt Q9H2G2)
PKN2 (human) = PKN2 (human) (UniProt Q16513)
ALK (human) = ALK (human) (UniProt Q9UM73)
NLK (human) = NLK (human) (UniProt Q9UBE8)
PAK3 (human) = PAK3 (human) (UniProt O75914)
CLK2 (human) = CLK2 (human) (UniProt P49760)
CLK3 (human) = CLK3 (human) (UniProt P49761)
KIT (human) = KIT (human) (UniProt P10721)
TTK (human) = TTK (human) (UniProt P33981)
MINK1 (human) = MINK1 (human) (UniProt Q8N4C8)
MAPK13 (human) = MAPK13 (human) (UniProt O15264)
RPS6KA3 KD1 KD2 (human) = RPS6KA3 KD1 KD2 (human) (UniProt P51812)
PDGFRA (human) = PDGFRA (human) (UniProt P16234)
MAP3K8 (human) = MAP3K8 (human) (UniProt P41279)
NEK1 (human) = NEK1 (human) (UniProt Q96PY6)
MARK1 (human) = MARK1 (human) (UniProt Q9P0L2)
MAP2K1 (human) = MAP2K1 (human) (UniProt Q02750)
DYRK3 (human) = DYRK3 (human) (UniProt O43781)
[1] = molecular target: TYK2 JH1 catalytic (human) (UniProt P29597)
TGFBR2 (human) = TGFBR2 (human) (UniProt P37173)
HIPK4 (human) = HIPK4 (human) (UniProt Q8NE63)
ROS1 (human) = ROS1 (human) (UniProt P08922)
MAP3K3 (human) = MAP3K3 (human) (UniProt Q99759)
[2] = molecular target: JAK1 JH1 catalytic (human) (UniProt P23458)
ACVR1 (human) = ACVR1 (human) (UniProt Q04771)
ERBB4 (human) = ERBB4 (human) (UniProt Q15303)
CDK3 CCNE1 (human) = CDK3 CCNE1 (human) (UniProt Q00526+P24864)
ZAP70 (human) = ZAP70 (human) (UniProt P43403)
MAP4K2 (human) = MAP4K2 (human) (UniProt Q12851)
ACVR1B (human) = ACVR1B (human) (UniProt P36896)
FER (human) = FER (human) (UniProt P16591)
EPHB3 (human) = EPHB3 (human) (UniProt P54753)
RET (human) = RET (human) (UniProt P07949)
CSNK1G2 (human) = CSNK1G2 (human) (UniProt P78368)
NTRK3 (human) = NTRK3 (human) (UniProt Q16288)

Chain of ERBB4 (human) (Q15303 whole entry, looked up): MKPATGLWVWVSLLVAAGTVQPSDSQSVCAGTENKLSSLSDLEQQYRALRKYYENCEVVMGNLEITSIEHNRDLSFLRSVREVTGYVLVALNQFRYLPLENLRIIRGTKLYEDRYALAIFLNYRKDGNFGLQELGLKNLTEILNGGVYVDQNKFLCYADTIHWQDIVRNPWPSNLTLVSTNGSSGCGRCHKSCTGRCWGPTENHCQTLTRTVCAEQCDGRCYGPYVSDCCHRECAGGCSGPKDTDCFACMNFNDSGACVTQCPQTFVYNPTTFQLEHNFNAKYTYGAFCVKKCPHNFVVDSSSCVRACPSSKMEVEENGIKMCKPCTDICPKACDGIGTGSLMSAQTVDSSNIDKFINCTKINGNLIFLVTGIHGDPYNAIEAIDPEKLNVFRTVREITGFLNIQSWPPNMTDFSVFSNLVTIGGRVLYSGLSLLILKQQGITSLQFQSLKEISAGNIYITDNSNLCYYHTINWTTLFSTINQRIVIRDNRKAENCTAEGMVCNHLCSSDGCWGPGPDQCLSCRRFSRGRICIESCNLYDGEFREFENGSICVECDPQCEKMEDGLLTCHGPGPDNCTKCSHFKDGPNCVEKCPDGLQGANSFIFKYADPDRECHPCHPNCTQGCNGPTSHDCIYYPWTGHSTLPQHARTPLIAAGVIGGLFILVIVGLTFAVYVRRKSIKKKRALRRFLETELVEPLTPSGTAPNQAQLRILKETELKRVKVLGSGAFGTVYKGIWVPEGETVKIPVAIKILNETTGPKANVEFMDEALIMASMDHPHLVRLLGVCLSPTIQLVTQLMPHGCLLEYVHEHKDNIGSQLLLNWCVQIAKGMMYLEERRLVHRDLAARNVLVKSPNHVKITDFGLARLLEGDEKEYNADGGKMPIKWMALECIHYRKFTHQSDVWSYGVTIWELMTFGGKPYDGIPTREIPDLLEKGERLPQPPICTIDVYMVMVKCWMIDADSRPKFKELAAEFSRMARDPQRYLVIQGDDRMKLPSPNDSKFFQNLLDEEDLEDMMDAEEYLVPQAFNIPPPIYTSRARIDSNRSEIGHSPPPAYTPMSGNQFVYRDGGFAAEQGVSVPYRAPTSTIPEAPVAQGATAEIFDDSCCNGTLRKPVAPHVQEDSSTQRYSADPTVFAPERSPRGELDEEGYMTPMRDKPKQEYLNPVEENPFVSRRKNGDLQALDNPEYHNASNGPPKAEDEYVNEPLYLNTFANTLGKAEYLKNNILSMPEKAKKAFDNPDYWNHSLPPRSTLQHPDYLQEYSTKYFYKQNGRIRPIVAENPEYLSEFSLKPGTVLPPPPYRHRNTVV
Chain of CHUK (human) (O15111 whole entry, looked up): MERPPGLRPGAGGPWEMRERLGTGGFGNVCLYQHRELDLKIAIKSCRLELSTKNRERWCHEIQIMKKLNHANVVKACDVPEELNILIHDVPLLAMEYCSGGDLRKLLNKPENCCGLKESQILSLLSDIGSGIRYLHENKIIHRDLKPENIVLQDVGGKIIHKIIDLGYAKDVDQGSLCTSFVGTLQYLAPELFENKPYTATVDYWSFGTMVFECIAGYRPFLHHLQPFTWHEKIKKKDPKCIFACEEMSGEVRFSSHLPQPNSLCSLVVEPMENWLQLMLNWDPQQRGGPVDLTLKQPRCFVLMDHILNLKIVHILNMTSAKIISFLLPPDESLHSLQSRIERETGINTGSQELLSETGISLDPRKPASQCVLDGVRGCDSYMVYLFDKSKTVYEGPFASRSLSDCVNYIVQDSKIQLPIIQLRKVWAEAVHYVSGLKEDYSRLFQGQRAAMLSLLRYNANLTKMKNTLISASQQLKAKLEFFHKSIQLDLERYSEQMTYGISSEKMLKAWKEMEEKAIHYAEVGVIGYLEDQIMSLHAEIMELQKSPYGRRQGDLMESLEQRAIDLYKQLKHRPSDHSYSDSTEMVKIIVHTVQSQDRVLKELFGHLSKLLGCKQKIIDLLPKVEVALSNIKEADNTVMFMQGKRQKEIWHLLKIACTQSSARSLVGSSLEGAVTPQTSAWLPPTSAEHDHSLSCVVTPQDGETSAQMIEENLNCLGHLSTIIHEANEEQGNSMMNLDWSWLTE
Chain of TGFBR2 (human) (P37173 whole entry, looked up): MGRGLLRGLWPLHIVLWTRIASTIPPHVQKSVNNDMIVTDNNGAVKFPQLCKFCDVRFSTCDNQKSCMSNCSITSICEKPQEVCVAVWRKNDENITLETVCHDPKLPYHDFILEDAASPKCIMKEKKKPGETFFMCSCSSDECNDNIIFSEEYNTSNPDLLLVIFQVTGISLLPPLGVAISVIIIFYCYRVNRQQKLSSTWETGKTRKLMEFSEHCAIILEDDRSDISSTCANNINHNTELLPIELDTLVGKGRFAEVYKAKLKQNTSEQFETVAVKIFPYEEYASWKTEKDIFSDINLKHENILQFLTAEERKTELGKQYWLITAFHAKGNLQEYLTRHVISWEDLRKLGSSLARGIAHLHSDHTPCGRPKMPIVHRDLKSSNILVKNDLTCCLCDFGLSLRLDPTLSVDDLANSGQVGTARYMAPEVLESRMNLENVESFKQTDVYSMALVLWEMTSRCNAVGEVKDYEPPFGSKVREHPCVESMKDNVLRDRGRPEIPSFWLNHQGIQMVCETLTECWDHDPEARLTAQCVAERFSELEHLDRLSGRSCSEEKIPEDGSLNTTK
Chain of KIT (human) (P10721 whole entry, looked up): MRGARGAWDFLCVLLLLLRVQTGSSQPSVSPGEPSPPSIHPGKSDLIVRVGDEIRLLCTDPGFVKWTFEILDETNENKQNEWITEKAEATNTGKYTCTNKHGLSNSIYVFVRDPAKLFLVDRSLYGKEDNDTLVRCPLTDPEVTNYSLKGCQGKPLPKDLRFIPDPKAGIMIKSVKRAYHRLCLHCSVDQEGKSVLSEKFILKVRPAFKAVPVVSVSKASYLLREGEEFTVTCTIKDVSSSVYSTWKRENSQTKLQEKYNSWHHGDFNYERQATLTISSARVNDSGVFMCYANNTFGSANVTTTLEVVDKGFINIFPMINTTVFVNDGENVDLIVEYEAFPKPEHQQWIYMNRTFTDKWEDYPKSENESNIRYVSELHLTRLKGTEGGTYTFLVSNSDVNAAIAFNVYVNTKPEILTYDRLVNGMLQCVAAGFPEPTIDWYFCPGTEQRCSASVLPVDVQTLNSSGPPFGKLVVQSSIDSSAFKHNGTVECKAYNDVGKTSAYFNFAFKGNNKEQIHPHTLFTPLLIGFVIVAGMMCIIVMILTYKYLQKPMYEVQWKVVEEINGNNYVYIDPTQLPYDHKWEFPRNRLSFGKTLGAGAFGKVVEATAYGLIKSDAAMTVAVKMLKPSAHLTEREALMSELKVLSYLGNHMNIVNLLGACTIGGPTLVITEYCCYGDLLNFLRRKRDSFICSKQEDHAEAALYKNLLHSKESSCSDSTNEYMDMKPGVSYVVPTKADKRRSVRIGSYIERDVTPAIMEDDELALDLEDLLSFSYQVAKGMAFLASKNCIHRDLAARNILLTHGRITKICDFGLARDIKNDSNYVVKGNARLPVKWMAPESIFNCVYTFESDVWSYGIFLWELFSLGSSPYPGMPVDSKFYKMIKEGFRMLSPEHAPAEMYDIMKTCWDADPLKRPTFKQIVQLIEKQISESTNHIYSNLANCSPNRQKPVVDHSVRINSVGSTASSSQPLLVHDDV
Chain of CLK2 (human) (P49760 whole entry, looked up): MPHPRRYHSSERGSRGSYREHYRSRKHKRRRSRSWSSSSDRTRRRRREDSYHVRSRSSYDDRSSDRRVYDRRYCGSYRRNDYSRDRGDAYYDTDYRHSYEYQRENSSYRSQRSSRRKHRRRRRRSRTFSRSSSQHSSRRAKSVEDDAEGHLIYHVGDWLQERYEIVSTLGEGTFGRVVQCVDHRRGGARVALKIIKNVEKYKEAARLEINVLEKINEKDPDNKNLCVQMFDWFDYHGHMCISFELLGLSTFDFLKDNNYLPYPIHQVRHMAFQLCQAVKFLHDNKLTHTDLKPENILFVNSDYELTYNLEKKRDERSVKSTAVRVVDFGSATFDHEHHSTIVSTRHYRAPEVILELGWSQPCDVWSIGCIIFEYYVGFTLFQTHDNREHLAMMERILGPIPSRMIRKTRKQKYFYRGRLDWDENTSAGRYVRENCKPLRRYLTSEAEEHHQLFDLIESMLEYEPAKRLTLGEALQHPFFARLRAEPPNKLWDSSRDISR
Chain of PKN2 (human) (Q16513 whole entry, looked up): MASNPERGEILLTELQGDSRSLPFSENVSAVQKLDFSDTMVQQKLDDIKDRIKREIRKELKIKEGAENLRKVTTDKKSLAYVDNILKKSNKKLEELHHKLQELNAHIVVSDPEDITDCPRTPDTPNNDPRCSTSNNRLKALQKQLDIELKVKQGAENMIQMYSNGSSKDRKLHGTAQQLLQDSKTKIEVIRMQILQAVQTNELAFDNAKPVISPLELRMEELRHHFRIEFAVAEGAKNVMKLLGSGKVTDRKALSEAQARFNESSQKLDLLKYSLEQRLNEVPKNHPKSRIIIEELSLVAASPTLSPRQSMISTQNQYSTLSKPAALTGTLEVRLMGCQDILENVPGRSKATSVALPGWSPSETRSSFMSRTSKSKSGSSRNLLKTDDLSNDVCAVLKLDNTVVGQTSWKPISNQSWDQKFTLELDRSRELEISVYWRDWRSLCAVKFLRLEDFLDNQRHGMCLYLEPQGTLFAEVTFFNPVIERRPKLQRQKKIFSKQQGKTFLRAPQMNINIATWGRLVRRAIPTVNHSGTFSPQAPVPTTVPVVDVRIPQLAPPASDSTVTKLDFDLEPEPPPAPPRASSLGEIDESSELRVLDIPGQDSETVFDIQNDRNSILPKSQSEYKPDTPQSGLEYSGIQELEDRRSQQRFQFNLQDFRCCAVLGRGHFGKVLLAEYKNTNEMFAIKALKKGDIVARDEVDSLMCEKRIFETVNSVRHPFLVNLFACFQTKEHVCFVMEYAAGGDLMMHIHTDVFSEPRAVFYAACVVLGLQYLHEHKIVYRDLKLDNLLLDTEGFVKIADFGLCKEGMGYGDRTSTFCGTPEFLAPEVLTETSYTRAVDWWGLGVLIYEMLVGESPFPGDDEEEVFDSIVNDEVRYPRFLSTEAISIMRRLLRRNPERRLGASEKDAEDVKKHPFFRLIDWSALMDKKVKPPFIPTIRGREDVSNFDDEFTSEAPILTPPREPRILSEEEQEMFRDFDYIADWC

N#Cc1c(NC(=O)c2cccc3ccccc23)sc2c1CCCC2
residual activity (PDGFRB (human)): 98.9%
residual activity (CHUK (human)): 99.6%
residual activity (PRKCE (human)): 99.1%
residual activity (SIK2 (human)): 101%
residual activity (CLK1 (human)): 99.2%
residual activity (MAP3K11 (human)): 103%
residual activity (GRK7 (human)): 116%
residual activity (SLK (human)): 99.2%
residual activity (PKN2 (human)): 103%
residual activity (ALK (human)): 96.4%
residual activity (NLK (human)): 99.4%
residual activity (PAK3 (human)): 105%
residual activity (CLK2 (human)): 101%
residual activity (CLK3 (human)): 99.3%
residual activity (KIT (human)): 84.2%
residual activity (TTK (human)): 85.5%
residual activity (MINK1 (human)): 95.2%
residual activity (MAPK13 (human)): 109%
residual activity (RPS6KA3 KD1 KD2 (human)): 99%
residual activity (PDGFRA (human)): 101%
residual activity (MAP3K8 (human)): 99.8%
residual activity (NEK1 (human)): 93.4%
residual activity (MARK1 (human)): 100%
residual activity (MAP2K1 (human)): 98.4%
residual activity (DYRK3 (human)): 128%
residual activity [1]: 100%
residual activity (TGFBR2 (human)): 104%
residual activity (HIPK4 (human)): 110%
residual activity (ROS1 (human)): 96.8%
residual activity (MAP3K3 (human)): 99.8%
residual activity [2]: 108%
residual activity (ACVR1 (human)): 72.9%
residual activity (ERBB4 (human)): 99.8%
residual activity (CDK3 CCNE1 (human)): 99.2%
residual activity (ZAP70 (human)): 95%
residual activity (MAP4K2 (human)): 86.1%
residual activity (ACVR1B (human)): 96.5%
residual activity (FER (human)): 99.7%
residual activity (EPHB3 (human)): 95.9%
residual activity (RET (human)): 105%
residual activity (CSNK1G2 (human)): 103%

CN[C@@H]1C[C@H]2O[C@@](C)([C@@H]1OC)n1c3ccccc3c3c4c(c5c6ccccc6n2c5c31)C(=O)NC4
residual activity (PDGFRB (human)): 2.28%
residual activity (GRK7 (human)): 0.737%
residual activity (ALK (human)): 0.859%
residual activity (RPS6KA3 KD1 KD2 (human)): -1.27%
residual activity (NEK1 (human)): 3.99%
residual activity (MAP2K1 (human)): 3.83%
residual activity [2]: 2.07%
residual activity (CDK3 CCNE1 (human)): 8.24%
residual activity (FER (human)): 0.816%

COc1cc2c(N3CCN(C(=O)Nc4ccc(OC(C)C)cc4)CC3)ncnc2cc1OCCCN1CCCCC1
residual activity (CHUK (human)): 98.3%
residual activity (PRKCE (human)): 104%
residual activity (SIK2 (human)): 98.9%
residual activity (CLK1 (human)): 72.4%
residual activity (MAP3K11 (human)): 100%
residual activity (GRK7 (human)): 104%
residual activity (SLK (human)): 94.6%
residual activity (PKN2 (human)): 110%
residual activity (ALK (human)): 103%
residual activity (NLK (human)): 105%
residual activity (PAK3 (human)): 105%
residual activity (CLK2 (human)): 80.7%
residual activity (CLK3 (human)): 93.4%
residual activity (KIT (human)): 45.1%
residual activity (TTK (human)): 100%
residual activity (MINK1 (human)): 99%
residual activity (MAPK13 (human)): 99.3%
residual activity (RPS6KA3 KD1 KD2 (human)): 96.6%
residual activity (PDGFRA (human)): 11.1%
residual activity (MAP3K8 (human)): 93.2%
residual activity (NEK1 (human)): 119%
residual activity (MARK1 (human)): 89.9%
residual activity (MAP2K1 (human)): 113%
residual activity (DYRK3 (human)): 109%
residual activity [1]: 97.9%
residual activity (TGFBR2 (human)): 102%
residual activity (HIPK4 (human)): 99.5%
residual activity (ROS1 (human)): 90.1%
residual activity (MAP3K3 (human)): 106%
residual activity [2]: 102%
residual activity (ACVR1 (human)): 145%
residual activity (ERBB4 (human)): 97.3%
residual activity (CDK3 CCNE1 (human)): 90.6%
residual activity (ZAP70 (human)): 116%
residual activity (MAP4K2 (human)): 104%
residual activity (ACVR1B (human)): 101%
residual activity (FER (human)): 104%
residual activity (EPHB3 (human)): 84.2%
residual activity (RET (human)): 91.5%
residual activity (CSNK1G2 (human)): 95.5%

COc1cc2c(Nc3ccc(Br)cc3F)ncnc2cc1OCC1CCN(C)CC1
residual activity (CHUK (human)): 96.6%
residual activity (PRKCE (human)): 100%
residual activity (SIK2 (human)): 17.6%
residual activity (CLK1 (human)): 105%
residual activity (MAP3K11 (human)): 100%
residual activity (GRK7 (human)): 96.4%
residual activity (SLK (human)): 73.9%
residual activity (PKN2 (human)): 99.7%
residual activity (NLK (human)): 96.2%
residual activity (PAK3 (human)): 103%
residual activity (CLK2 (human)): 89.7%
residual activity (CLK3 (human)): 100%
residual activity (KIT (human)): 71.4%
residual activity (TTK (human)): 95.1%
residual activity (MINK1 (human)): 81.5%
residual activity (MAPK13 (human)): 95.5%
residual activity (RPS6KA3 KD1 KD2 (human)): 97.8%
residual activity (PDGFRA (human)): 28.6%
residual activity (MAP3K8 (human)): 97.3%
residual activity (NEK1 (human)): 123%
residual activity (MARK1 (human)): 83.7%
residual activity (MAP2K1 (human)): 105%
residual activity (DYRK3 (human)): 96%
residual activity [1]: 97.7%
residual activity (TGFBR2 (human)): 102%
residual activity (HIPK4 (human)): 100%
residual activity (ROS1 (human)): 76.5%
residual activity (MAP3K3 (human)): 102%
residual activity [2]: 99.1%
residual activity (ACVR1 (human)): 208%
residual activity (NTRK3 (human)): 72.2%
residual activity (ERBB4 (human)): 45.6%
residual activity (CDK3 CCNE1 (human)): 92.9%
residual activity (ZAP70 (human)): 96.8%
residual activity (ACVR1B (human)): 107%
residual activity (FER (human)): 95.8%
residual activity (EPHB3 (human)): 77.4%
residual activity (CSNK1G2 (human)): 98.5%

Reference: the kinase profiling compilation of Christmann-Franck et al. (2016)
